Source: patent US7732444B2, “2-(amino-substituted)-4-aryl pyrimidines and related compounds useful for treating inflammatory diseases” (Millennium Pharmaceuticals, Inc., priority 2004, dated 2010)

target: T1, full length PKC θ (Homo sapiens, UniProt Q04759); assay: PKC-theta isoform inhibition assay (HTRF, 384 well plate); type: biochemical; conditions: full length PKC θ at 27 pM, peptide substrate 300 nM + 3 μM ATP, HTRF readout
T1 construct: 15 μL of full length PKC θ (Panvera Corporation); purchased Panvera Corporation
T1 sequence (Q04759 whole entry, canonical isoform): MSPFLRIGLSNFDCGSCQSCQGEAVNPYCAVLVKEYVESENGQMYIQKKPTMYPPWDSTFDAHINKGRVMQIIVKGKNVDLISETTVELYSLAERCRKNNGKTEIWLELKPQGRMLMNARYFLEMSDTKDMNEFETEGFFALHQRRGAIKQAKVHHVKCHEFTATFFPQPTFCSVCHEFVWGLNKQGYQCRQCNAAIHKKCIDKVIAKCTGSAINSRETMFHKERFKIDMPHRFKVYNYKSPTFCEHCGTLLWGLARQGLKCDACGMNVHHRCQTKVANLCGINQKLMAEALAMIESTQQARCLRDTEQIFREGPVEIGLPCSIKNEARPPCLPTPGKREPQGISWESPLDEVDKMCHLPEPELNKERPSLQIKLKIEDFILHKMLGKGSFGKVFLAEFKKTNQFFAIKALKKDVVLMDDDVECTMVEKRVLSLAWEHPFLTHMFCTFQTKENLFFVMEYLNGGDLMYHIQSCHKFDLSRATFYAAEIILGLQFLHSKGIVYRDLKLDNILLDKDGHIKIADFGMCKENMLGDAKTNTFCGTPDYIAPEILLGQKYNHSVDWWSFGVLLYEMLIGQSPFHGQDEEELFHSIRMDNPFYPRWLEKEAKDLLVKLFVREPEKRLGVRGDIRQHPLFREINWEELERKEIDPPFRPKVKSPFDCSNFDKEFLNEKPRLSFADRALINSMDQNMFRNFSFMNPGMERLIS
Protocol: An in vitro assay for detecting and measuring inhibition activity against PKC-theta isoform by candidate pharmacological agents is useful for evaluating and selecting a compound that modulates PKC-theta isoform. An IC50 value can be calculated after running the assay. Following is an assay protocol for measuring PKC-theta isoform.
Per well of a 384 well plate, compounds at various concentrations in 5 μL of 20% DMSO were pre-incubated for about 30 minutes at about 25° C. with 15 μL of full length PKC θ (Panvera Corporation) at 27 pM in an assay buffer (25 mM Hepes, pH 7.5, 5 mM DTT, 10 mM MgCl2, 10 mM 2-glycerophosphate, 12.5 μg/mL 1,2-dioleoyl-rac-glycerol, 10 μg/mL L-α-phosphatidyl-L-serine, 0.1% Bovine Serum Albumin). 10 μL of peptide substrate (biotin-(CH2)6— RFARKGSLRQKNV —CONH2) at 300 nM+3 μM ATP were added to each well and incubated for about 1 hour before quenching with 10 μL of 250 mM EDTA. 40 μL of detection buffer (25 mM Hepes, pH 7.5, 100 mM KF, 0.1% Bovine Serum Albumin, 0.01% Tween20) containing 2 nM anti-phospho antibody 2B9 (MBL International) labeled with europium cryptate (Cis-Bio International) and 0.0064 μg/mL streptavidin-allophycocyanin (Prozyme) was added to each well and incubated for two hours. Signal was then read on a Discovery HTRF (Packard).

Row | IC50 [nM] | SMILES
1 | < 100 | CCNCc1cccc(-c2ccnc(NCCc3ccc(O)cc3)n2)c1 [Compound 131, 4-{2-[4-(3-Ethylaminomethyl-phenyl)-pyrimidin-2-ylamino]-ethyl}-phenol]
2 | < 100 | CS(=O)(=O)N(CCCN)Cc1cccc(-c2ccnc(NCCc3ccc(O)c(Cl)c3)n2)c1 [Compound 24, N-(3-Amino-propyl)-N-(3-{2-[2-(3-chloro-4-hydroxy-phenyl)-ethylamino]-pyrimidin-4-yl}-benzyl)-methanesulfonamide]
3 | < 100 | CS(=O)(=O)N(CCCN)Cc1cccc(-c2ccnc(NCCc3ccc(O)c([N+](=O)[O-])c3)n2)c1 [Compound 22, N-(3-Amino-propyl)-N-(3-{2-[2-(4-hydroxy-3-nitro-phenyl)-ethylamino]-pyrimidin-4-yl}-benzyl)-methanesulfonamide]
4 | < 100 | C[C@H]1CNCC[C@H]1NCc1cccc(-c2ccnc(NCCc3ccc(O)cc3)n2)c1 [Compound 249, 4-[2-(4-{3-[(3(S)-Methyl-piperidin-4(R)-ylamino)-methyl]-phenyl}-pyrimidin-2-ylamino)-ethyl]-phenol]
5 | < 100 | CS(=O)(=O)N(CCCN)Cc1cccc(-c2ccnc(NCCc3cc(Cl)c(O)c(Cl)c3)n2)c1 [Compound 29, N-(3-Amino-propyl)-N-(3-{2-[2-(3,5-dichloro-4-hydroxy-phenyl)-ethylamino]-pyrimidin-4-yl}-benzyl)-methanesulfonamide]
6 | < 100 | C[C@H]1CNCCN1Cc1cccc(-c2ccnc(NCCc3cccc(F)c3)n2)c1 [Compound 130, [2-(3-Fluoro-phenyl)-ethyl]-{4-[3-(2-(S)-methyl-piperazin-1-ylmethyl)-phenyl]-pyrimidin-2-yl}-amine]
7 | < 100 | NC(=O)C1CNCCN1Cc1cccc(-c2ccnc(NCCc3ccc(O)cc3)n2)c1 (centres unmarked) [Compound 254, 1-(3-{2-[2-(4-Hydroxy-phenyl)-ethylamino]-pyrimidin-4-yl}-benzyl)-piperazine-2-carboxylic acid amide]

Second part, the compound before the results:

Row | SMILES | IC50 [nM]
8 | COc1cc(CCNc2nccc(-c3cccc(NC4CCNCC4)c3)n2)ccc1O [Compound 40, 2-Methoxy-4-(2-{4-[3-(piperidin-4-ylamino)-phenyl]-pyrimidin-2-ylamino}-ethyl)-phenol] | < 100
9 | Oc1ccc(CCNc2nccc(-c3cccc(NC4CCNC4)c3)n2)cc1 (centres unmarked) [Compound 55, 4-(2-{4-[3-(Pyrrolidin-3-ylamino)-phenyl]-pyrimidin-2-ylamino}-ethyl)-phenol] | < 100
10 | COc1ccc(CCNc2nccc(-c3cccc(CN(CCCN)S(C)(=O)=O)c3)n2)cc1O [Compound 8, N-(3-Amino-propyl)-N-(3-{2-[2-(3-hydroxy-4-methoxy-phenyl)-ethylamino]-pyrimidin-4-yl}-benzyl)-methanesulfonamide] | < 100
11 | CS(=O)(=O)N(CCCNC(=O)c1ccccn1)Cc1cccc(-c2ccnc(NCCc3ccc(O)cc3)n2)c1 [Compound 60, Pyridine-2-carboxylic acid {3-[(3-{2-[2-(4-hydroxy-phenyl)-ethylamino]-pyrimidin-4-yl}-benzyl)-methanesulfonyl-amino]-propyl}-amide] | < 100
12 | CS(=O)(=O)N(CCCNS(=O)(=O)c1ccccc1)Cc1cccc(-c2ccnc(NCCc3ccc(O)cc3)n2)c1 [Compound 65, N-{3-[(3-{2-[2-(4-Hydroxy-phenyl)-ethylamino]-pyrimidin-4-yl}-benzyl)-methanesulfonyl-amino]-propyl}-benzenesulfonamide] | < 100
13 | CC(C)(C)NCc1cccc(-c2ccnc(NCCc3ccc(O)c(Cl)c3)n2)c1 [Compound 218, 4-(2-{4-[3-(tert-Butylamino-methyl)-phenyl]-pyrimidin-2ylamino}-ethyl)-2-chloro-phenol] | < 100
14 | Oc1ccc(CCNc2nccc(-c3cccc(NC4CCNCC4)c3)n2)cc1Cl [Compound 45, 2-Chloro-4-(2-{4-[3-(piperidin-4-ylamino)-phenyl]-pyrimidin-2-ylamino}-ethyl)-phenol] | < 100
